For orientation: pIC50 means the negative decadic logarithm of the IC50, by convention in mol/L.

Data on 17 molecules can be found in patent US7285569B2, “Tricycles, their manufacture and use as pharmaceutical agents” (Hoff Hoffmann-La Roche Inc., priority 2004, dated 2007).

pIC50: −log10 of the molar value.

Assay [1] addresses T1, Aurora A (Homo sapiens, UniProt O14965).
T1 construct: C-terminally Histidine4 (His4)-tagged Aurora A full-length protein
T1 sequence (O14965 1-403): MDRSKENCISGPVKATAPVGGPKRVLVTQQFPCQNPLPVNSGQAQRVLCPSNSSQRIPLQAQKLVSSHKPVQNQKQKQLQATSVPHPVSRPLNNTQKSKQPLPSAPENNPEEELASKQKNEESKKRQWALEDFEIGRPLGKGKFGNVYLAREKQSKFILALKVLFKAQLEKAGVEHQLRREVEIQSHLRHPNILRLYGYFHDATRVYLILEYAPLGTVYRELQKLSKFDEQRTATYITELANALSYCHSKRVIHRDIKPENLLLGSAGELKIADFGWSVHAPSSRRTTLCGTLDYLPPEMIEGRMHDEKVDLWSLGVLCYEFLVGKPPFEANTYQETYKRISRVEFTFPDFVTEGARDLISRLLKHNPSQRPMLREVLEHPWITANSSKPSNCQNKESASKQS
As to the kind of experiment: IC50 determination for inhibitors of Aurora A (96 MTP-ELISA). It is filed as biochemical. The settings on record: His4-tagged full-length Aurora A 250 ng/ml, PKB-GSK2 200 nM, ATP 4 μM, 90 min at room temperature; read-out: IC50 Aurora A kinase inhibition. From the text: IC50 Determination for Inhibitors of Aurora A
Aurora A is a serine threonine kinase involved in spindle assembly and chromosome segregation.
The assay is a typically ELISA-type assay where biotinylated substrate (PKB-GSK2) is phosphorylated. Phosphorylation is detected by peroxidase (POD) labelled polyclonal antibody (PAK<M-Ig>S-IgG-POD) and phosphopeptide monoclonal antibody (Mab) (MAK<P-GSK>M-27E5-IgG). The assay is validated for IC50-determination.
Aurora A-His-4 C-terminally Histidine4 (His4)-tagged Aurora A full-length protein, stock solution 0.7 mg/ml, final conc.: 250 ng/ml
PKB-GSK2 biotinylated peptide derived from human GSK3-alpha sequence (Biotin-SGRARTSSFAEPGG-CONH2), stock solution 600 μM, final conc.: 200 nM
ATP Adenosine-5′-triphosphate 1 mM, diluted in kinase buffer, (Roche Diagnostics GmbH, Cat. No.: 127531-001,), final conc.: 4 μM
Kinase buffer 50 mM TRIS, 10 mM MgCl2, 1 mM DTT, 0.1% Tween 20, pH 7.8
This assay is performed in 96-well format for IC50 determination with 5 samples (each with 8 concentrations by twofold testing), 100 μl incubation volume and the following plate layout:
Step/Action 1. Sample preparation: add 24 μl per well samples (descending sequence) diluted in kinase buffer to assay plate (final conc. for DMSO 1%). 2. Add directly 16 μl Aurora-A-his-4 diluted in kinase buffer to assay plate. 3. Add directly 40 μl per well PKB-GSK2/ATP mixture to assay plate, (final conc.: Aurora A=250 ng/ml, GSK2=200 nM, ATP=4 μM). Negative control: without ATP. 4. Incubate assay plate for exactly 90 min at room temperature. 5. Stop reaction by adding 20 μl EDTA in all wells. 6. Wash assay plate 3× with 200 μl washing buffer per well. 7. Add 100 μl MAK<P-GSK>M27E5-IgG (1:10000) and PAK<M-Ig>S-IgG-POD (1:6000) dissolved in 3% BSA/PBS-T to assay plate per well. 8. Incubate assay plate for 60 min at room temperature. 9. Wash assay plate 3× with 200 μl washing buffer per well 10. Add 100 μl ABTS solution to assay plate per well, incubate for approx. 4 min at RT on MTP shaker. 11. Measure absorption at 405/492 nm. 12. Calculate % inhibition as: (1−(Esample−ENC)/(EPC−ENC))×100 13. Calculate IC50 using a non-linear curve fit (XLfit software (ID Business Solution Ltd., Guilford, Surrey, UK))
In general terms: An ELISA detects its analyte on a solid surface through an enzyme-linked reagent.

Assay [2] relates to HCT 116 cells. Nature of the assay: CellTiter-Glo assay in HCT 116 cells (antiproliferative activity). The following applies: HCT 116 human colon carcinoma cells, 5 days (120 h) incubation, CellTiter-Glo luminescence. It is filed as cell-based. From the text:
Antiproliferative Activity
CellTiter-Glo™ Assay in HCT 116 Cells
The CellTiter-Glo™ Luminescent Cell Viability Assay (Promega) is a homogeneous method of determining the number of viable cells in culture based on quantitation of the ATP present, which signals the presence of metabolically active cells.
HCT 116 cells (human colon carcinoma, ATCC-No. CCI-247) were cultivated in RPMI 1640 medium with GlutaMAX™ I (Invitrogen, Cat-No. 61870-010), 2.5% Fetal Calf Serum (FCS, Sigma Cat-No. F4135 (FBS)); 100 Units/ml penicillin/100 μg/ml streptomycin (=Pen/Strep from Invitrogen Cat. No. 15140). For the assay the cells were seeded in 384 well plates, 1000 cells per well, in the same medium. The next day the test compounds were added in various concentrations ranging from 30 μM to 0.0015 μM (10 concentrations, 1:3 diluted). After 5 days the CellTiter-Glo™ assay was done according to the instructions of the manufacturer (CellTiter-Glo™ Luminescent Cell Viability Assay, from Promega). In brief: the cell-plate was equilibrated to room temperature for approximately 30 minutes and than the CellTiter-Glo™ reagent was added. The contents were carefully mixed for 15 minutes to induce cell lysis. After 45 minutes the luminescent signal was measured in Victor 2, (scanning multiwell spectrophotometer, Wallac).
Medium: RPMI 1640 with GlutaMAX™ I (Invitrogen, Cat-Nr. 61870), 5% FCS (Sigma Cat.-No. F4135), Pen/Strep (Invitrogen, Cat No. 15140).
HCT116 (ATCC-No. CCI-247): 1000 cells in 60 μl per well of 384 well plate (Greiner 781098, μClear-plate white)
After seeding incubate plates 24 h at 37° C., 5% CO2
2nd. Day: Induction (Treatment with Compounds, 10 Concentrations):
In order to achieve a final concentration of 30 μM as highest concentration 3.5 μl of 10 mM compound stock solution were added directly to 163 μl media. Then step e) of the dilution procedure described below, was followed.
In order to achieve the second highest to the lowest concentrations, a serial dilution with dilution steps of 1:3 was followed according to the procedure (a-e) as described here below: • for the second highest concentration add 10 μl of 10 mM stock solution of compound to 20 μl dimethylsulfoxide (DMSO) • dilute 8×1:3 (always 10 μl to 20 μl DMSO) in this DMSO dilution row (results in 9 wells with concentrations from 3333.3 μM to 0.51 μM) • dilute each concentration 1:47.6 (3.5 μl compound dilution to 163 μl media) • add 10 μl of every concentration to 60 μl media in the cell plate resulting in final concentration of DMSO: 0.3% in every well and resulting in 10 final concentration of compounds ranging from 30 μM to 0.0015 μM. • Each compound is tested in triplicate. • Incubate 120 h (5 days) at 37° C., 5% CO2 Analysis:
Add 30 μl CellTiter-Glo™ Reagent (prepared from CellTiter-Glo™ Buffer and CellTiter-Glo™ Substrate (lyophilized) purchased from Promega) per well, • shake 15 minutes at room temperature • incubate further 45 minutes at room temperature without shaking Measurement:
Victor 2 scanning multiwell spectrophotometer (Wallac), Luminescence mode (0.5 sec/read, 477 nm)
Determine IC50 using a non-linear curve fit (XLfit software (ID Business Solution Ltd., Guilford, Surrey, UK))
(In general: Cellular ATP, detected with luciferase, serves as a proxy for viable cell number.)

For the molecule `Cc1cc(-c2nc3cc4[nH]c(=O)n(C(C)C)c4cc3[nH]2)n[nH]1` [Example 11, 3-Isopropyl-6-(5-methyl-1H-pyrazol-3-yl)-3,5-dihydro-1H-benzo[1,2-d;4,5-d′]diimidazol-2-one], the pIC50 in assay [1] is 6.80; in assay [2], 4.00 to 5.00. On to `Cc1cc(-c2nc3cc4c(cc3[nH]2)N(C)C(=O)C4(C)C)n[nH]1` [Example 31, 5,7,7-Trimethyl-2-(5-methyl-1H-pyrazol-3-yl)-5,7-dihydro-3H-imidazo[4,5-f]indol-6-one], for which the negative logarithm of the IC50 (pIC50) in assay [1] was 6.30 to 8.00; in assay [2] it was 5.00 to 7.00. On to `CC(C)CCc1cc(-c2nc3cc4c(cc3[nH]2)C(C)(C)C(=O)N4)n[nH]1` [Example 18, 7,7-Dimethyl-2-[5-(3-methyl-butyl)-1H-pyrazol-3-yl]-5,7-dihydro-1H-imidazo[4,5-f]indol-6-one], for which the pIC50 in assay [1] is 6.30 to 8.00; in assay [2], 5.00 to 7.00. `CC(C)Cc1cc(-c2nc3cc4c(cc3[nH]2)C(C)(C)CC(=O)N4)[nH]n1` [Example 4, 2-(5-Isobutyl-2H-pyrazol-3-yl)-8,8-dimethyl-1,5,7,8-tetrahydro-imidazo[4,5-g]quinolin-6-one]: the negative-log IC50 (pIC50) in assay [1] was 5.82 to 6.30; in assay [2] it was 5.12. For `Cc1cc(-c2nc3cc4[nH]c(=O)[nH]c4cc3[nH]2)n[nH]1` [Example 9, 6-(5-Methyl-1H-pyrazol-3-yl)-3,5-dihydro-1H-benzo[1,2-d;4,5-d′]diimidazol-2-one] the same measures were 5.82 to 6.30 and 4.00 to 5.00. In the case of `Cc1cc(-c2nc3cc4c(cc3[nH]2)C(C)(C)C(=O)N4C(C)C)[nH]n1` [Example 34, 5-Isopropyl-7,7-dimethyl-2-(5-methyl-2H-pyrazol-3-yl)-5,7-dihydro-1H-imidazo[4,5-f]indol-6-one], the negative logarithm of the IC50 (pIC50) in assay [1] is 6.30 to 8.00; in assay [2], 5.00 to 7.00. In the case of `CC(C)c1cc(-c2nc3cc4c(cc3[nH]2)NC(=O)C42CCCC2)[nH]n1` [Example 28, 2-(5-Isopropyl-2H-pyrazol-3-yl)-spiro-5,7-dihydro[cyclopentane-1′,7-imidazo[4,5-f]indol]-6(3H)-one], the negative logarithm of the IC50 (pIC50) in assay [1] was 5.82 to 6.30; in assay [2], 5.00 to 7.00. For `O=C1Nc2cc3[nH]c(-c4ccn[nH]4)nc3cc2C12CCCC2` [Example 27, 2-(2H-pyrazol-3-yl)-spiro-5,7-dihydro[cyclopentane-1′,7-imidazo[4,5-f]indol]-6(3H)-one] the same measures were 6.30 to 8.00 and 5.00 to 7.00. For `Cc1cc(-c2nc3cc4c(cc3[nH]2)C(C)(C)CC(=O)N4)n[nH]1` [Example 3, 8,8-Dimethyl-2-(5-methyl-1H-pyrazol-3-yl)-1,5,7,8-tetrahydro-imidazo[4,5-g]quinolin-6-one] the same measures were 6.67 and 4.00 to 5.00. `CCCc1cc(-c2nc3cc4c(cc3[nH]2)C(C)(C)C(=O)N4C(C)C)[nH]n1` [Example 35, 5-Isopropyl-7,7-dimethyl-2-(5-propyl-2H-pyrazol-3-yl)-5,7-dihydro-1H-imidazo[4,5-f]indol-6-one]: the negative logarithm of the IC50 (pIC50) was 6.30 to 8.00 in assay [1] and 5.00 to 7.00 in assay [2]. Turning to `CCCc1cc(-c2nc3cc4c(cc3[nH]2)NC(=O)C42CCCC2)[nH]n1` [Example 29, 2-(5-Propyl-2H-pyrazol-3-yl)-spiro-5,7-dihydro[cyclopentane-1′,7-imidazo[4,5-f]indol]-6(3H)-one], the pIC50 in assay [1] was 5.82 to 6.30. On to `Cc1cc(-c2nc3cc4c(cc3[nH]2)NC(=O)C42CCCC2)[nH]n1` [Example 7, 2-(5-Methyl-2H-pyrazol-3-yl)-spiro-5,7-dihydro[cyclopentane-1′,7-imidazo[4,5-f]indol]-6(3H)-one], for which the pIC50 in assay [1] is 6.30 to 8.00; in assay [2], 5.00 to 7.00. For `CC1(C)C(=O)Nc2cc3nc(-c4cc(C5CC5)[nH]n4)[nH]c3cc21` [Example 21, 2-(5-Cyclopropyl-1H-pyrazol-3-yl)-7,7-dimethyl-5,7-dihydro-1H-imidazo[4,5-f]indol-6-one], the negative-log IC50 (pIC50) in assay [1] is 6.30 to 8.00. For `CC(=O)N1CC(C)(C)c2cc3nc(-c4cc(C)n[nH]4)[nH]c3cc21` [Example 2, 1-[7,7-Dimethyl-2-(5-methyl-2H-pyrazol-3-yl)-6,7-dihydro-3H-imidazo[4,5-f]indol-5-yl]-ethanone], the negative logarithm of the IC50 (pIC50) in assay [1] was 6.30 to 8.00; in assay [2] it was 5.33. For `CCCc1cc(-c2nc3cc4c(cc3[nH]2)C(C)(C)CC(=O)N4)[nH]n1` [Example 23, 8,8-Dimethyl-2-(5-propyl-2H-pyrazol-3-yl)-1,5,7,8-tetrahydro-imidazo[4,5-g]quinolin-6-one] the same measures were 6.30 to 8.00 and 5.00 to 7.00. On to `CC(C)Cc1cc(-c2nc3cc4c(cc3[nH]2)C(C)(C)C(=O)N4)[nH]n1` [Example 6, 2-(5-isobutyl-2H-pyrazol-3-yl)-7,7-dimethyl-5,7-dihydro-1H-imidazo[4,5-f]indol-6-one], for which the pIC50 in assay [1] is 5.82 to 6.30; in assay [2], 5.00 to 7.00.

Take `CCCN1C(=O)C(C)(C)c2cc3[nH]c(-c4cc(C(F)(F)F)n[nH]4)nc3cc21` [Example 41, 7,7-Dimethyl-5-propyl-2-(5-trifluoromethyl-2H-pyrazol-3-yl)-5,7-dihydro-1H-imidazo[4,5-f]indol-6-one]: the figures for the pIC50 in assay [1] and in assay [2] were 5.82 to 6.30 and 5.00 to 7.00, respectively.
